{
  "source": "patent US5358947A",
  "about": "“Angiotensin II receptor blocking 2,3-substituted pyrazolo[1,5-a]-1,3,5-triazin-4(3H)-ones” (American Cyanamid Company, priority 1993, dated 1994)",
  "test_system": "ANGIOTENSIN II (AII) VASOPRESSOR RESPONSE",
  "assay": "AII Challenge: angiotensin II (AII) vasopressor response in conscious rats",
  "type": "in vivo",
  "design": "Response After AII / Change / Average Change: unit not given here",
  "conditions": "10 mg/kg i.v.; for Change / Response After AII / Control Before AII: individual rat, listed as Ex. 12; for Control Before AII: in mmHg (unit assumed); for % Inhibition / Average Change: n = 2",
  "text": "By administering a compound of this invention to a rat, and then challenging with angiotensin II, a blockage of the vasopressor response is realized.\nConscious Male Okamoto-Aoki SHR, 16-20 weeks old, weighing approximately 330 g are purchased from Charles River Labs (Wilmington, Mass.). Conscious rats are restrained in a supine position with elastic tape. The area at the base of the tail is locally anesthetized by subcutaneous infiltration with 2% procaine. The ventral caudal artery and vein are isolated, and a cannula made of polyethylene (PE) 10-20 tubing (fused together by heat) is passed into the lower abdominal aorta and vena cava, respectively. The cannula is secured, heparinized (1,000 I.U./ml), sealed and the wound is closed. The animals are placed in plastic restraining cages in an upright position. The cannula is attached to s Statham P23Db pressure transducer, and pulsatile blood pressure is recorded to 10-15 minutes with a Gould Brush recorder. (Chan et al., (Drug Development Res., 18:75-94, 1989).\nAngiotensin II (human sequence, Sigma Chem. Co., St. Louis, Mo.) of 0.05 and 0.1 ug/kg i.v. is injected into all rats (predosing response.). Then a test compound, vehicle or a known angiotensin II antagonist is administered i.v., i.p. or orally to each set of rats. The two doses of angiotensin II are given to each rat again at 30, 60, 90, 120, 180, 240 and 300 minutes post dosing the compound or vehicle. The vasopressor response of angiotensin II by a compound is calculated using the vasopressor response (increase in systolic blood pressure) of angiotensin II of each rat predosing the compound as 100%. A compound is considered active if at 30 mg/kg i.v. it antagonized at least 50% of the response.",
  "key": {"[1]": {"conditions": "AII 0.05 mcg/kg, 30 min post dose"}, "[2]": {"conditions": "AII 0.05 mcg/kg, 60 min post dose"}, "[3]": {"conditions": "AII 0.05 mcg/kg, 90 min post dose"}, "[4]": {"conditions": "AII 0.05 mcg/kg, 120 min post dose"}, "[5]": {"conditions": "AII 0.05 mcg/kg, 180 min post dose"}, "[6]": {"conditions": "AII 0.05 mcg/kg, 240 min post dose"}, "[7]": {"conditions": "AII 0.05 mcg/kg, 300 min post dose"}, "[8]": {"conditions": "AII 0.1 mcg/kg, 30 min post dose"}, "[9]": {"conditions": "AII 0.1 mcg/kg, 60 min post dose"}, "[10]": {"conditions": "AII 0.1 mcg/kg, 90 min post dose"}, "[11]": {"conditions": "AII 0.1 mcg/kg, 120 min post dose"}, "[12]": {"conditions": "AII 0.1 mcg/kg, 180 min post dose"}, "[13]": {"conditions": "AII 0.1 mcg/kg, 240 min post dose"}, "[14]": {"conditions": "AII 0.1 mcg/kg, 300 min post dose"}},
  "note": "Where “and” joins values, the source holds several entries; their conditions need not be identical. Equal entries are not always repeated.",
  "data": [
    {"smiles": "CCCCc1nc2cc(-c3ccc(F)cc3)nn2c(=O)n1Cc1ccc(-c2ccccc2-c2nnn[nH]2)cc1", "note": "[Example 12, 2-Butyl-7-(4-fluorophenyl)-3-[[2'-(1H-tetrazol-5-yl)[1,1'-biphenyl]-4-yl]methyl]pyrazolo[1,5-a]-1,3,5-triazin-4(3H)-one]", "values": [
      {"measurement": "Change", "setting": "[1]", "value": "10 and 20"},
      {"measurement": "Response After AII", "setting": "[1]", "value": "205 and 245"},
      {"measurement": "Control Before AII", "setting": "[1]", "value": "195 and 225"},
      {"measurement": "% Inhibition", "setting": "[1]", "value": 73, "unit": "%"},
      {"measurement": "Average Change", "setting": "[1]", "value": 15},
      {"measurement": "Change", "setting": "[2]", "value": "20 and 10"},
      {"measurement": "Response After AII", "setting": "[2]", "value": "200 and 240"},
      {"measurement": "Control Before AII", "setting": "[2]", "value": "180 and 230"},
      {"measurement": "% Inhibition", "setting": "[2]", "value": 7, "unit": "%"},
      {"measurement": "Average Change", "setting": "[2]", "value": 15},
      {"measurement": "Change", "setting": "[3]", "value": "20 and 25"},
      {"measurement": "Response After AII", "setting": "[3]", "value": "185 and 250"},
      {"measurement": "Control Before AII", "setting": "[3]", "value": "165 and 225"},
      {"measurement": "% Inhibition", "setting": "[3]", "value": 59, "unit": "%"},
      {"measurement": "Average Change", "setting": "[3]", "value": 22.5},
      {"measurement": "Change", "setting": "[4]", "value": "25 and 30"},
      {"measurement": "Response After AII", "setting": "[4]", "value": "185 and 255"},
      {"measurement": "Control Before AII", "setting": "[4]", "value": "160 and 225"},
      {"measurement": "% Inhibition", "setting": "[4]", "value": 50, "unit": "%"},
      {"measurement": "Average Change", "setting": "[4]", "value": 27.5},
      {"measurement": "Change", "setting": "[5]", "value": "10 and 33"},
      {"measurement": "Response After AII", "setting": "[5]", "value": "195 and 240"},
      {"measurement": "Control Before AII", "setting": "[5]", "value": "185 and 207"},
      {"measurement": "% Inhibition", "setting": "[5]", "value": 61, "unit": "%"},
      {"measurement": "Average Change", "setting": "[5]", "value": 21.5},
      {"measurement": "Change", "setting": "[6]", "value": "10 and 35"},
      {"measurement": "Response After AII", "setting": "[6]", "value": "195 and 255"},
      {"measurement": "Control Before AII", "setting": "[6]", "value": "185 and 220"},
      {"measurement": "% Inhibition", "setting": "[6]", "value": 59, "unit": "%"},
      {"measurement": "Average Change", "setting": "[6]", "value": 22.5},
      {"measurement": "Change", "setting": "[7]", "value": "15 and 35"},
      {"measurement": "Response After AII", "setting": "[7]", "value": "200 and 260"},
      {"measurement": "Control Before AII", "setting": "[7]", "value": "185 and 225"},
      {"measurement": "% Inhibition", "setting": "[7]", "value": 55, "unit": "%"},
      {"measurement": "Average Change", "setting": "[7]", "value": 25},
      {"measurement": "Change", "setting": "[8]", "value": "10 and 15"},
      {"measurement": "Response After AII", "setting": "[8]", "value": "210 and 250"},
      {"measurement": "Control Before AII", "setting": "[8]", "value": "200 and 235"},
      {"measurement": "% Inhibition", "setting": "[8]", "value": 76, "unit": "%"},
      {"measurement": "Average Change", "setting": "[8]", "value": 12.5},
      {"measurement": "Change", "setting": "[9]", "value": "15 and 30"},
      {"measurement": "Response After AII", "setting": "[9]", "value": "205 and 250"},
      {"measurement": "Control Before AII", "setting": "[9]", "value": "190 and 220"},
      {"measurement": "% Inhibition", "setting": "[9]", "value": 57, "unit": "%"},
      {"measurement": "Average Change", "setting": "[9]", "value": 22.5},
      {"measurement": "Change", "setting": "[10]", "value": "30 and 25"},
      {"measurement": "Response After AII", "setting": "[10]", "value": "200 and 260"},
      {"measurement": "Control Before AII", "setting": "[10]", "value": "170 and 235"},
      {"measurement": "% Inhibition", "setting": "[10]", "value": 48, "unit": "%"},
      {"measurement": "Average Change", "setting": "[10]", "value": 27.5},
      {"measurement": "Change", "setting": "[11]", "value": "25 and 42"},
      {"measurement": "Response After AII", "setting": "[11]", "value": "195 and 267"},
      {"measurement": "Control Before AII", "setting": "[11]", "value": "170 and 225"},
      {"measurement": "% Inhibition", "setting": "[11]", "value": 36, "unit": "%"},
      {"measurement": "Average Change", "setting": "[11]", "value": 33.5},
      {"measurement": "Change", "setting": "[12]", "value": "15 and 40"},
      {"measurement": "Response After AII", "setting": "[12]", "value": "200 and 250"},
      {"measurement": "Control Before AII", "setting": "[12]", "value": "185 and 210"},
      {"measurement": "% Inhibition", "setting": "[12]", "value": 48, "unit": "%"},
      {"measurement": "Average Change", "setting": "[12]", "value": 27.5},
      {"measurement": "Change", "setting": "[13]", "value": "15 and 45"},
      {"measurement": "Response After AII", "setting": "[13]", "value": "200 and 270"},
      {"measurement": "Control Before AII", "setting": "[13]", "value": "185 and 225"},
      {"measurement": "% Inhibition", "setting": "[13]", "value": 43, "unit": "%"},
      {"measurement": "Average Change", "setting": "[13]", "value": 30},
      {"measurement": "Change", "setting": "[14]", "value": "20 and 50"},
      {"measurement": "Response After AII", "setting": "[14]", "value": "205 and 275"},
      {"measurement": "Control Before AII", "setting": "[14]", "value": "185 and 225"},
      {"measurement": "% Inhibition", "setting": "[14]", "value": 33, "unit": "%"},
      {"measurement": "Average Change", "setting": "[14]", "value": 35}
    ]}
  ]
}
